Measurements reported in patent publication US11331271B2, “Buccal, sublingual and intranasal delivery of fospropofol” (The Johns Hopkins University, priority 2016, dated 2022).

What was measured:
[1] = Pharmacokinetic studies in rats: fospropofol and propofol in plasma after IV, PO or ID fospropofol; settings: for F of fospropofol (vs 5 mg/kg IV) / F of propofol (vs 5 mg/kg IV fospropofol): rats
Experimental: Male Sprague-Dawley rats (Charles River, Md., USA) weighing 200-250 g were used, unless otherwise noted. Animals were housed in groups of three-inch suspended polycarbonate cages (18-inches long, 9-inches wide and 9-inches high) under a 12-h light/dark cycle. Food (Harlan/Teklab) and water (filtered and delivered via an automatic watering system) were provided ad libitum. All procedures were conducted in compliance with the laws, regulations and guidelines of the National Institutes of Health (NIH/PHS) and with approval from the local Animal Care and Use committee.
For animal studies, a fospropofol dosing solution was made by dissolving powder in water (for oral and intra-duodenal administration) or saline (for intravenous administration) into an administration volume of 1 or 2 mL/kg, as noted.
Male Sprague-Dawley rats (225-250 g) underwent implantation with indwelling jugular vein catheters for plasma sampling. Animals receiving intravenous (IV) drug administration also underwent femoral vein catheterization and, after full recovery were attached to an electronic infusion pump and administered vehicle or various concentrations of fospropofol in 1 mL total volume by gradual constant rate infusion over 10 min. Intraduodenal (ID) administration was via previously implanted catheters (HILLTOP Labs, PA) in a constant volume of 2 mL/kg body weight, by slow infusion. Oral administration (PO) was performed via a curved bulb-tipped feeding gavage tube attached to a syringe inserted carefully through the oesophagus via the side of the mouth of manually restrained rats using an administration volume of 1 mL/kg. On the day of testing, control blood samples were taken from the jugular vein prior to dosing of test compounds in conscious rats. In these studies, intravenous doses were based on previously reported behavioral and pharmacokinetic studies with fospropofol. The PO and ID doses were established based on preliminary experiments with behavioral observation, using higher doses based on lower expected oral bioavailability.
After fospropofol administration, blood samples (0.5 mL) were taken at 5, 15, 30, 45, 60, 120, 240 and 360 min post dose. An equivalent volume of blood taken from donor rats of the same strain was administered after each blood sample withdrawal, in an effort to maintain blood volume as previously described (Skrajnar, et al., 2009; Moghaddam, et al., 2002; Choi, et al., 2007). Approximately 0.05 mL of 200 mg/mL of sodium orthovanadate (SOV) solution was added to the heparinized blood collection tubes prior to blood collection to prevent ex vivo conversion via alkaline phosphatases (ALP). The blood samples were mixed, cooled and subsequently centrifuged at 3,000 rpm and 4° C. for 10 min within 30 min of collection. Plasma samples were stored at −20° C. until analysis.
For fospropofol analysis, fospropofol-d6 (internal standard prepared in 1.0 M ammonium acetate buffer) was added to the plasma samples (rat or human: 0.05 mL) and subsequently extracted using a solid phase extraction (SPE). The SPE cartridges were conditioned by gravity with methanol and 1.0 M ammonium acetate solution in water. The plasma samples with internal standard were loaded on the cartridges, washed with water and 10% methanol/water and eluted with methanol. The tubes were then evaporated under nitrogen and the residues reconstituted with 50/50 methanol/25 mM ammonium acetate in deionized water. The sample extract was then injected onto a reversed phase HPLC Zorbax Eclipse XDB-C18 column. The separated analytes were detected using tandem mass spectrometry (MS/MS) detection.

[2] = Intranasal delivery of fospropofol in monkeys: plasma and CSF levels; type: in vivo, monkey
Experimental: More particularly, in this example, monkeys were dosed with 50 mg fospropofol by intranasal administration. Plasma and cerebrospinal fluid (CSF) were collected before treatment (graphed as t=0), 15 minutes, 30 minutes, 1 hr, and 2 hr. Samples were analyzed for propofol and fospropofol by LC/MS. […] These samples are near the limit of quantification. FIGS. 11A and 11B show the data in nM and ng/mL scales, respectively.

[3] = type: in vitro ADME
Experimental: (§1) The SPE cartridges were conditioned by gravity with methanol and 1.0 M ammonium acetate solution in water. The plasma samples with internal standard were loaded on the cartridges, washed with water and 10% methanol/water and eluted with methanol. The tubes were then evaporated under nitrogen and the residues reconstituted with 50/50 methanol/25 mM ammonium acetate in deionized water. The sample extract was then injected onto a reversed phase HPLC Zorbax Eclipse XDB-C18 column. The separated analytes were detected using tandem mass spectrometry (MS/MS) detection. […] The assays were linear with correlation coefficient of (R^2)>0.99 over the range of 10-2,000 ng/mL for rat plasma and 5-1,000 ng/mL for human plasma.
(§2) In brief, 4-[tert-octyl] phenol, (internal standard) was added to the plasma samples (0.05 mL for rat or 0.2 mL for human) and extracted using a 3M Empore C-18-SD 4 mm SPE cartridge (Millipore, Billerica, Mass., USA). […] The final eluants (˜0.3 mL) were diluted with 0.3 mL of water, and injected onto an HPLC system equipped with a C-18 analytical column (5 μm, 150×3.9 mm) and fluorescence detector set at excitation and emission wave lengths of 275 and 310 nm, respectively. […] All rat and human study samples in this study were analyzed without exceeding the stability sample integrity during validation of the methods.

[4] = Stability in rat plasma at −20° C.; type: in vitro ADME
Experimental: as §1, §2

[5] = Human Study 2: single ascending oral dose, plasma pharmacokinetics; type: in vivo
Experimental: In human study 1, fospropofol disodium was formulated as a sterile aqueous solution at a concentration of 20 mg/mL. Each vial provided contained 20 mL of solution, suitable for intravenous injection. Fospropofol was administered as a single dose of 400 mg orally, directly into the duodenum by gastroscopy or intravenously over 10 min. In human study 2, fospropofol disodium in capsules (200 mg) or matching placebo was administered orally.
A second single ascending dose study was subsequently performed to assess the safety, tolerability, and pharmacokinetics of oral administration of fospropofol as a capsule. This was a double-blind, randomized, crossover, placebo-controlled, single ascending dose study. Ten healthy volunteers were enrolled, 6 males and 4 females between 18 and 45 years of age inclusive with a body mass index between 18 and 28 kg/m^2. Each subject received four ascending oral doses of fospropofol disodium (200, 600, 1,000 and 1,200 mg) and one of placebo. Placebo was administered randomly, in one of the five periods. Subjects stayed in the clinical research unit over 3 days per treatment for five consecutive treatments. […] Pharmacokinetic parameters, safety and pharmacodynamic effect were assessed in a manner similar to that in Study 1 described above. […]

[6] = male, Sprague-Dawley, rat, plasma, 30 mg/kg
[7] = male, Sprague-Dawley, rat, plasma, 100 mg/kg
[8] = male, Sprague-Dawley, rat, plasma, iv, 5 mg/kg
[9] = male, Sprague-Dawley, rat, plasma, po, 20 mg/kg
[10] = male, Sprague-Dawley, rat, plasma, po, 100 mg/kg

`CC(C)c1cccc(C(C)C)c1OCOP(=O)(O)O` [fospropofol] showed an AUC(0-inf) [1, 6] of 50 ng·h/mL, an AUC(0-t) [1, 6] of 44 ng·h/mL and a Cmax [1, 6] of 170 ng/mL. For the same molecule, the half-life [1, 6] was 12.6 min, the AUC(0-inf) [1, 7] was 650 ng·h/mL and the AUC(0-t) [1, 7] was 644 ng·h/mL. For the same molecule, the Cmax [1, 7] was 3740 ng/mL, the half-life [1, 7] was 13.8 min and the AUC(0-inf) [1, 8] was 3150 ng·h/mL. For the same molecule, the AUC(0-t) [1, 8] was 3150 ng·h/mL, the Cmax [1, 8] was 16300 ng/mL and the Vd [1, 8] was 1.02 L/kg. It also gave a clearance [1, 8] of 23 mL/min/kg, a half-life [1, 8] of 29.4 min and an AUC(0-inf) [1, 9] of 60 ng·h/mL. The AUC(0-t) [1, 9] was 50 ng·h/mL, the Cmax [1, 9] was 230 ng/mL and the half-life [1, 9] was 11.4 min. For the same molecule, the AUC(0-inf) [1, 10] was 2180 ng·h/mL, the AUC(0-t) [1, 10] was 2160 ng·h/mL and the Cmax [1, 10] was 9230 ng/mL. The half-life [1, 10] was 29.4 min, the “F of fospropofol (vs 5 mg/kg IV)” value ([1]; fospropofol 20 mg/kg PO) was 0.448% and the “F of fospropofol (vs 5 mg/kg IV)” value ([1]; fospropofol 30 mg/kg ID) was 0.264%. For the same molecule, the “F of fospropofol (vs 5 mg/kg IV)” value ([1]; fospropofol 100 mg/kg ID) was 1.03%, the “F of fospropofol (vs 5 mg/kg IV)” value ([1]; fospropofol 100 mg/kg PO) was 3.46% and the “fospropofol (prodrug) in plasma after intranasal administration” value ([2]; 50 mg intranasal) was “appreciable plasma concentrations of prodrug”. For the same molecule, the “fospropofol in CSF samples” value ([2]; 50 mg intranasal, only two samples) was “low nanomolar range”, the “time stable at −20° C. in human plasma” value [3] was 464 days and the “time stable at −20° C. in rat plasma” value [4] was 98 days. The “fospropofol exposure vs dose” value ([5]; PO capsules 200-1,200 mg) was “dose related increase”.

In the case of `CC(C)c1cccc(C(C)C)c1O` [propofol, 2,6-diisopropylphenol], the bioavailability ([1]; male, Sprague-Dawley, rat, plasma) is reported as ~100%, the bioavailability ([1]; male, Sprague-Dawley, rat, plasma, po) is reported as 20 to 70% and the bioavailability [1, 10] is reported as ≥ 70%. For the same molecule, the “F of propofol (vs 5 mg/kg IV fospropofol)” value ([1]; fospropofol 20 mg/kg PO) was 22.7%, the “F of propofol (vs 5 mg/kg IV fospropofol)” value ([1]; fospropofol 30 mg/kg ID) was 47.3% and the “F of propofol (vs 5 mg/kg IV fospropofol)” value ([1]; fospropofol 100 mg/kg ID) was 141%. The “F of propofol (vs 5 mg/kg IV fospropofol)” value ([1]; fospropofol 100 mg/kg PO) was 70.5%, the “propofol in plasma samples” value ([2]; 50 mg fospropofol intranasal, up to 2 hr) was “not quantifiable” and the “time stable at −20° C. in human plasma” value [3] was 347 days. For the same molecule, the “time stable at −20° C. in rat plasma” value [4] was 65 days and the “propofol exposure vs dose” value ([5]; PO fospropofol capsules 200-1,200 mg) was “dose related increase”.
